Data as given in US8399462B2, “JNK modulators” (Roche Palo Alto LLC, priority 2006, dated 2013).

Row | Compound | melting point
1 | CC(C)Oc1cccc2c1cnn2-c1ccnc(N[C@H]2CC[C@H](N(C)S(C)(=O)=O)CC2)n1 [Compound 189, N-{4-[4-(4-isopropoxy-indazol-1-yl)-pyrimidin-2-ylamino]-cyclohexyl}-N-methyl-methanesulfonamide] | 222 to 223 °C
2 | CCCCOc1cccc2c1cnn2-c1ccnc(N[C@H]2CC[C@H](N(C)S(C)(=O)=O)CC2)n1 [Compound 190, N-{4-[4-(4-butoxy-indazol-1-yl)-pyrimidin-2-ylamino]-cyclohexyl}-N-methyl-methanesulfonamide] | 191 to 192 °C
3 | CC(C)COc1cccc2c1cnn2-c1ccnc(N[C@H]2CC[C@H](N(C)S(C)(=O)=O)CC2)n1 [Compound 191, N-{4-[4-(4-isobutoxy-indazol-1-yl)-pyrimidin-2-ylamino]-cyclohexyl}-N-methyl-methanesulfonamide] | 227 to 228 °C
4 | CS(=O)(=O)N[C@H]1CC[C@H](Nc2nccc(-n3ccc4c(C5(O)CCOCC5)cccc43)n2)CC1 [Compound 194, N-(4-{4-[4-(4-hydroxy-tetrahydropyran-4-yl)-indol-1-yl]-pyrimidin-2-ylamino}-cyclohexyl)-methanesulfonamide] | 248.3 to 249 °C
5 | CS(=O)(=O)N[C@H]1CC[C@H](Nc2nccc(-n3ccc4c(OCC5CCN(C(=O)OCc6ccccc6)CC5)cccc43)n2)CC1 [Compound 195, 4-{1-[2-(4-methane-sulfonylamino-cyclo-hexylamino)-pyrimidin-4-yl]-1H-indol-4-yloxymethyl}-piperidine-1-carboxylic acid benzyl ester] | 179 to 180 °C
6 | CN([C@H]1CC[C@H](Nc2nccc(-n3ncc4c(OCCCNS(C)(=O)=O)cccc43)n2)CC1)S(C)(=O)=O [Compound 197, N-[3-(1-{2-[4-(methane-sulfonyl-methylamino)-cyclohexylamino]-pyrimidin-4-yl}-1H-indazol-4-yloxy)-propyl]-methane-sulfonamide] | 259 to 259.5 °C
7 | CS(=O)(=O)N[C@H]1CC[C@H](Nc2nccc(-n3ccc4c(OCCCC#N)cccc43)n2)CC1 [Compound 202, N-(4-{4-[4-(3-cyano-propoxy)-indol-1-yl]-pyrimidin-2-ylamino}-cyclohexyl)-methane-sulfonamide] | 247 to 248 °C
8 | CC(=O)NCc1cccc2c1ccn2-c1ccnc(N[C@H]2CC[C@H](N(C)S(C)(=O)=O)CC2)n1 [Compound 205, N-(1-{2-[4-(methane-sulfonyl-methylamino)-cyclohexylamino]-pyrimidin-4-yl}-1H-indol-4-ylmethyl)-acetamide] | 210.5 to 212 °C
9 | N#CCCCOc1cccc2c1ccn2-c1ccnc(N[C@H]2CC[C@H](C(=O)N3CCC(O)CC3)CC2)n1 [Compound 206, 4-(1-{2-[4-(4-hydroxy-piperidin-1-carbonyl)-cyclohexylamino]-pyrimidin-4-yl}-1H-indol-4-yloxy)-butyro-nitrile] | 134 to 136 °C
10 | CC(C)(O)c1cccc2c1cnn2-c1ccnc(N[C@H]2CC[C@H](N3CCCS3(=O)=O)CC2)n1 [Compound 207, 2-(1-{2-[4-(1,1-dioxo-isothiazolidin-2yl)-cyclohexylamino]-pyrimidin-4-yl}-1H-indazol-4-yl)-propan-2-ol] | 204 to 205 °C
11 | CC(C)(O)[C@H]1CC[C@H](Nc2nccc(-n3ccc4c(S(C)(=O)=O)cccc43)n2)CC1 [Compound 209, 2-{4-[4-(4-methane-sulfonyl-indol-1-yl)-pyrimidin-2-ylamino]-cyclohexyl}-propan-2-ol] | 217.8 to 218.5 °C
12 | CC(C)(O)[C@H]1CC[C@H](Nc2nccc(-n3ncc4c(OCCCNS(C)(=O)=O)cccc43)n2)CC1 [Compound 210, N-[3-(1-{2-[4-(2-hydroxyprop-2-yl)-cyclohexylamino]-pyrimidin-4-yl}-1H-indazol-4-yloxy)-propyl]-methane-sulfonamide] | 171 to 172 °C
